This note sets out measurements from patent US8822645B2, “Prostaglandin E2 dual variable domain immunoglobulins and uses thereof” (AbbVie Inc., priority 2008, dated 2014).

The term % Inhibition denotes the percentage by which the read-out fell short of the control. A higher % Inhibition goes with a response far below the control. By IC50 is commonly meant the concentration at which inhibition is half-maximal. As a reminder, the Kd is the free concentration of one partner at which half of the binding sites on the other are occupied at equilibrium, for simple one-to-one binding. Read a high Kd as weaker binding.

The subject of series [1] is C57.BL/6 mice, carrageenan-induced footpad edema. Briefly: Carrageenan-induced footpad edema model. It is filed as in vivo, mouse. To be noted: 3 mg/kg, p.o. As to the method:
Carrageenan-Induced Footpad Edema is an acute rodent model of innate immune function. Intradermal (ID) injection of an inflammatory agent causes a rapid influx of neutrophils and fluid edema, which peaks at approximately 4 hours, followed by an influx of macrophages and monocytes, which peaks at approximately 48 hours. C57.BL/6 mice (8-10-week-old, Jackson Laboratories, Bar Harbor, Me.) were injected ID in the rear footpad with 30 μL of either PBS (left) or λ-carrageenen (Sigma Aldrich, St. Louis, Mo.) in PBS (right) at a concentration of 5.0 mg/mL (150 μg/mouse). […] Significant difference for paw thickness was determined by comparing mean paw swelling for each treatment group to vehicle in a Student's two-tailed t-test.
The endpoint measured was the difference in paw swelling (edema) between right and left paws 4 hours after treatment.
On the technique in general: Carrageenan injected into the paw causes an acute inflammation.

In series [2] the test system is human TNFα transgenic B6.Cg(SJL)-Tg(TNF) N21+ mice. Briefly: Human TNFα transgenic induced arthritis model. The class given is in vivo, mouse. To be noted: 30 mg/kg. As to the method: Human TNFα transgenic B6.Cg(SJL)-Tg(TNF) N21+ mice (40 male and 40 females) (Taconic, Hudson, N.Y.) at 4 weeks age were divided into 10 groups of 8 mice (4 male and 4 females/group). Each week, starting from week 5 until week 12 of age the morphology of the rear ankle joints of the mice were evaluated and scored for signs and symptoms of arthritis. Arthritic scores were assigned as follows. • 0=no arthritis (normal appearance and flexion) • 1=mild arthritis (joint distortion) • 2=moderate arthritis (swelling, joint deformation); and • 3=severe arthritis (ankylosis detected on flexion and severely impaired movement)
Animals were randomized to achieve approximately similar mean arthritic score (MAS) for all groups at week 9 at first signs of symptoms. Animals were then treated i.p. twice a week starting from week 10 of age until week 12 of age. Mice in group 1 served as untreated control were administered PBS.

Series [3] has as its target T1, human TNFα (Homo sapiens, UniProt P01375). Briefly: L929 assay (TNFα induced death of L929 cells). The class given is cell-based, mouse. To be noted: read-out: TNFα Cellular Potency IC50.
The nature of series [4]: Dynamic light scattering. It is filed as physicochemical. Particulars: 2 mg/mL in PBS. The procedure:
Samples were centrifuged at 10,000 RPM for 10 minutes before measured on DynaPro-801 Dynamic light scattering system.

Series [5] deals with T1, human TNFα. Briefly: BIAcore assay, TNFα binding kinetics and affinity. As to the method:
The BIACORE assay (BIAcore, Inc, Piscataway, N.J.) determines the affinity of antibodies or DVD-Ig with kinetic measurements of on-rate and off-rate constants. Binding of antibodies or DVD-Ig to a target antigen (for example, a purified recombinant target antigen) is determined by surface plasmon resonance-based measurements with a BIAcore® 3000 instrument (BIAcore® AB, Uppsala, Sweden) using running HBS-EP (10 mM HEPES [pH 7.4], 150 mM NaCl, 3 mM EDTA, and 0.005% surfactant P20) at 25° C. All chemicals are obtained from BIAcore® AB (Uppsala, Sweden) or otherwise from a different source as described in the text. […] The association and dissociation rate constants, kon (M^−1 s^−1) and koff (s^−1) are determined under a continuous flow rate of 25 μl/min. […] The equilibrium dissociation constant (M) of the reaction between antibodies or DVD-Igs and the target antigen is then calculated from the kinetic rate constants by the following formula: KD=koff/kon. Binding is recorded as a function of time and kinetic rate constants are calculated. In this assay, on-rates as fast as 10^6M^−1 s^−1 and off-rates as slow as 10^−6 s^−1 can be measured. […]

T1 sequence (P01375 77-233 limits assumed): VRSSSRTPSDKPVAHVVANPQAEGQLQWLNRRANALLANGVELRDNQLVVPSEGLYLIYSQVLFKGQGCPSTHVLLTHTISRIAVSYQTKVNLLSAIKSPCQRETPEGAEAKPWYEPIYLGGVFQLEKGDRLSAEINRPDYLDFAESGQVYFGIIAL

On to `COc1ccc2c(c1)c(CC(=O)O)c(C)n2C(=O)c1ccc(Cl)cc1` [Indomethacin, reference compound], for which the “% Inhibition” value in series [1] came out at 57 ± 3.5%. In series [1] (4 hours post carrageenan), the “Δ Paw Swelling” value was found to be 0.486 ± 0.03 mm.
Regarding “D2E7: human anti-TNFα monoclonal antibody, parent of the DVD-Igs [reference compound]”, in series [2], the “maximal efficacy (inhibition of AUC of the mean arthritis score)” value amounted to 59%. Further, the IC50 in series [3] stood at 0.041 nM. Moreover, the hydrodynamic radius in series [4] was determined as 5.46 nm. Moreover, the Kd in series [5] came out at 0.027 nM.
